# Values quoted from earlier work, collected in PMC12181400, “Leveraging viral genome sequences and machine learning models for identification of potentially selective antiviral agents” (Communications Chemistry, 2025).
# Structures can show the parent of a compound that is named as a salt. Where two headings read alike, the source gives them in different places. Peptide text beside a SMILES is read from it.
# Assays:
# Conditions in all cases: cited from earlier work
# [1] = tested on: cell viability (tox21-ap1-agonist-p1)
# [2] = tested on: cell viability (tox21-ar-mda-kb2-luc-agonist-p3)
# [3] = tested on: cell viability (tox21-ar-mda-kb2-luc-antagonist-p2)
# [4] = tested on: cell viability (tox21-are-bla-p1)
# [5] = tested on: cell viability (tox21-car-agonist-p1)
# [6] = tested on: cell viability (tox21-car-antagonist-p1)
# [7] = curve rank −9 to 9, 0 = inactive, ref NCATS Tox21 public data browser
SMILES,tox21-ap1-agonist-p1-viability (curve rank) [1],tox21-ar-mda-kb2-luc-agonist-p3-viability (curve rank) [2],tox21-ar-mda-kb2-luc-antagonist-p2-viability (curve rank) [3],tox21-are-bla-p1-viability (curve rank) [4],tox21-car-agonist-p1-viability (curve rank) [5],tox21-car-antagonist-p1-viability (curve rank) [6],"tox21-ap1-agonist-p1-viability (curve rank) [1, 7]","tox21-ar-mda-kb2-luc-agonist-p3-viability (curve rank) [2, 7]","tox21-ar-mda-kb2-luc-antagonist-p2-viability (curve rank) [3, 7]","tox21-are-bla-p1-viability (curve rank) [4, 7]","tox21-car-agonist-p1-viability (curve rank) [5, 7]","tox21-car-antagonist-p1-viability (curve rank) [6, 7]"
Clc1cccc(Cl)c1N=C1NCCN1 [Clonidine],0,0,0,0,0,0,,,,,,
Cc1cc(C)cc(OCC2CNC(=O)O2)c1 (stereo not drawn) [Metaxalone],0,0,0,0,0,0,,,,,,
Cc1c(NC(C)C)c(=O)n(-c2ccccc2)n1C [Ramifenazone],0,0,0,0,0,0,,,,,,
CCOC(=O)[C@H](CCc1ccccc1)N[C@@H](C)C(=O)N1CCC[C@H]1C(=O)O [Enalapril maleate],0,0,0,0,0,0,,,,,,
COCCc1ccc(OCC(O)CNC(C)C)cc1 (stereo not drawn) [Metoprolol tartrate],,,,,,,0,0,0,0,0,0
Cc1oncc1C(=O)Nc1ccc(C(F)(F)F)cc1 [Leflunomide],0,0,0,0,0,0,,,,,,
C[C@](N)(Cc1ccc(O)c(O)c1)C(=O)O [Methyldopa],0,0,0,0,0,0,,,,,,
CC(C)NNC(=O)c1ccncc1 [Iproniazid sulfate],0,0,0,0,0,0,,,,,,
C/C(=C(\CCOP(=O)(O)O)SC(=O)c1ccccc1)N(C=O)Cc1cnc(C)nc1N [Benfotiamine],0,0,0,0,0,0,,,,,,
CCS(=O)(=O)CCn1c([N+](=O)[O-])cnc1C [Tinidazole],0,0,0,0,0,0,,,,,,
Cc1cc2c(cc1S(N)(=O)=O)S(=O)(=O)CCC2 [Meticrane],,,,,,,0,0,0,0,0,0
CCC(=O)O[C@]1(C(=O)SCF)[C@H](C)C[C@H]2[C@@H]3C[C@H](F)C4=CC(=O)C=C[C@]4(C)[C@@]3(F)[C@@H](O)C[C@@]21C [Fluticasone propionate],0,0,0,0,0.67,0,,,,,,
CC(C)N(CCC(C(N)=O)(c1ccccc1)c1ccccn1)C(C)C (stereo not drawn) [Disopyramide],0,0,0,0,0,0,,,,,,
COc1ccc(OC)c(C(O)CNC(=O)CN)c1 (stereo not drawn) [Midodrine hydrochloride],0,0,0,0,0,0,,,,,,
NC(=O)C[S+]([O-])C(c1ccccc1)c1ccccc1 (stereo not drawn) [Modafinil],,,,,,,0,0,0,0,0,0
CC[N+]1(C)CCCC(OC(=O)C(O)(c2ccccc2)c2ccccc2)C1 (stereo not drawn) [Pipenzolate bromide],0,0,0,0,0,0,,,,,,
COC(=O)[C@H](Cc1ccccc1)NC(=O)[C@@H](N)CC(=O)O [Aspartame] (H-Asp-Phe-OMe),,,,,,,0,0,0,0,0,0
COc1ccc(-c2cc(=O)c3c(O)cc(O[C@@H]4O[C@H](CO[C@@H]5O[C@@H](C)[C@H](O)[C@@H](O)[C@H]5O)[C@@H](O)[C@H](O)[C@H]4O)cc3o2)cc1O [Diosmin],0,0,0,0,0,0,,,,,,
O=C(CCBr)N1CCN(C(=O)CCBr)CC1 [Pipobroman],0,0,0,0,0,0,,,,,,
OC(c1ccccc1)(c1ccccc1)C1CCNCC1 [Azacyclonol],,,,,,,0,0,0,0,0,0
O=C(O)CCCCC(=O)O [Hexanedioic acid],,,,,,,0,0,0,0,0,0
Nc1ccc(S(=O)(=O)Nc2ccccn2)cc1 [Sulfapyridine],0,0,0,0,0,0,,,,,,
CC(C)NCC(O)COc1ccc(COCCOC(C)C)cc1 (stereo not drawn) [Bisoprolol fumarate],0,0,0,0,0,0,,,,,,
